According to ChEMBL document CHEMBL4145553, “Design, synthesis, and biological evaluation of novel amide and hydrazide based thioether analogs targeting Histone deacteylase (HDAC) enzymes” (Eur J Med Chem, 2018):

Tests used:
Type in all cases: functional
[1] = tested on: NCI-H226; experiment: Growth inhibition of human NCI-H226 cells assessed as cell growth at 10^-7 M incubated for 48 hrs by sulforhodamine B assay relative to control; settings: NCI-H226, 48 h, read-out: Activity
[2] = tested on: MDA-MB-435; experiment: Growth inhibition of human MDA-MB-435 cells incubated for 48 hrs by sulforhodamine B assay; settings: MDA-MB-435, 48 h
[3] = tested on: NCI/ADR-RES; experiment: Growth inhibition of human NCI/ADR-RES cells assessed as cell growth at 10^-8 M incubated for 48 hrs by sulforhodamine B assay relative to control; settings: read-out: Activity
[4] = tested on: SK-MEL-28; experiment: Growth inhibition of human SK-MEL-28 cells assessed as cell growth at 10^-6 M incubated for 48 hrs by sulforhodamine B assay relative to control; settings: SK-MEL-28, 48 h, read-out: Activity
[5] = tested on: HCC 2998; experiment: Growth inhibition of human HCC2998 cells assessed as cell growth at 10^-7 M incubated for 48 hrs by sulforhodamine B assay relative to control; settings: HCC 2998, 48 h, read-out: Activity
[6] = tested on: NCI-H322M; experiment: Growth inhibition of human NCI-H322M cells assessed as cell growth at 10^-5 M incubated for 48 hrs by sulforhodamine B assay relative to control; settings: read-out: Activity
[7] = tested on: BT-549; experiment: Growth inhibition of human BT549 cells assessed as cell growth at 10^-6 M incubated for 48 hrs by sulforhodamine B assay relative to control; settings: BT-549, 48 h, read-out: Activity
[8] = tested on: MDA-MB-435; experiment: Induction of apoptosis in human MDA-MB-435 cells assessed as necrotic cells by propidium iodide/Annexin V staining based flow cytometry (reference value: 0.24%)
[9] = tested on: Malme-3M; experiment: Growth inhibition of human MALME-3M cells assessed as cell growth at 10^-5 M incubated for 48 hrs by sulforhodamine B assay relative to control; settings: read-out: Activity
[10] = tested on: SR; experiment: Growth inhibition of human SR cells assessed as cell growth at 10^-4 M incubated for 48 hrs by sulforhodamine B assay relative to control; settings: read-out: Activity
[11] = tested on: HL-60(TB); experiment: Growth inhibition of human HL-60(TB) cells assessed as cell growth at 10^-7 M incubated for 48 hrs by sulforhodamine B assay relative to control; settings: HL-60, 48 h, read-out: Activity
[12] = tested on: MCF7; experiment: Growth inhibition of human MCF7 cells assessed as cell growth at 10^-7 M incubated for 48 hrs by sulforhodamine B assay relative to control; settings: MCF7, 48 h, read-out: Activity
[13] = tested on: MDA-MB-468; experiment: Growth inhibition of human MDA-MB-468 cells assessed as cell growth at 10^-8 M incubated for 48 hrs by sulforhodamine B assay relative to control; settings: MDA-MB-468, 48 h, read-out: Activity
[14] = tested on: SK-MEL-5; experiment: Growth inhibition of human SK-MEL-5 cells assessed as cell growth at 10^-7 M incubated for 48 hrs by sulforhodamine B assay relative to control; settings: SK-MEL-5, 48 h, read-out: Activity
[15] = tested on: NCI/ADR-RES; experiment: Growth inhibition of human NCI/ADR-RES cells assessed as cell growth at 10^-4 M incubated for 48 hrs by sulforhodamine B assay relative to control; settings: read-out: Activity
[16] = tested on: HCC 2998; experiment: Growth inhibition of human HCC2998 cells assessed as cell growth at 10^-5 M incubated for 48 hrs by sulforhodamine B assay relative to control; settings: HCC 2998, 48 h, read-out: Activity
[17] = tested on: KM12; experiment: Growth inhibition of human KM12 cells incubated for 48 hrs by sulforhodamine B assay; settings: KM12, 48 h
[18] = tested on: A498; experiment: Growth inhibition of human A498 cells assessed as cell growth at 10^-7 M incubated for 48 hrs by sulforhodamine B assay relative to control; settings: A498, 48 h, read-out: Activity
[19] = tested on: NCI-H23; experiment: Growth inhibition of human NCI-H23 cells assessed as cell growth at 10^-6 M incubated for 48 hrs by sulforhodamine B assay relative to control; settings: NCI-H23, 48 h, read-out: Activity
[20] = tested on: M14; experiment: Growth inhibition of human M14 cells assessed as cell growth at 10^-7 M incubated for 48 hrs by sulforhodamine B assay relative to control; settings: M14, 48 h, read-out: Activity
[21] = tested on: SF-268; experiment: Growth inhibition of human SF268 cells assessed as cell growth at 10^-4 M incubated for 48 hrs by sulforhodamine B assay relative to control; settings: SF-268, 48 h, read-out: Activity
[22] = tested on: K562; experiment: Growth inhibition of human K562 cells incubated for 48 hrs by sulforhodamine B assay; settings: K562, 48 h
[23] = tested on: MDA-MB-468; experiment: Growth inhibition of human MDA-MB-468 cells assessed as cell growth at 10^-4 M incubated for 48 hrs by sulforhodamine B assay relative to control; settings: MDA-MB-468, 48 h, read-out: Activity
[24] = tested on: NCI-H23; experiment: Growth inhibition of human NCI-H23 cells incubated for 48 hrs by sulforhodamine B assay; settings: NCI-H23, 48 h
[25] = tested on: Hs-578T; experiment: Growth inhibition of human Hs 578T cells assessed as cell growth at 10^-7 M incubated for 48 hrs by sulforhodamine B assay relative to control; settings: read-out: Activity
[26] = tested on: COLO 205; experiment: Growth inhibition of human COLO205 cells assessed as cell growth at 10^-7 M incubated for 48 hrs by sulforhodamine B assay relative to control; settings: COLO 205, 48 h, read-out: Activity
[27] = tested on: BT-549; experiment: Growth inhibition of human BT549 cells incubated for 48 hrs by sulforhodamine B assay; settings: BT-549, 48 h
[28] = tested on: NCI-H460; experiment: Growth inhibition of human NCI-H460 cells assessed as cell growth at 10^-8 M incubated for 48 hrs by sulforhodamine B assay relative to control; settings: NCI-H460, 48 h, read-out: Activity
[29] = tested on: SF-539; experiment: Growth inhibition of human SF539 cells incubated for 48 hrs by sulforhodamine B assay; settings: SF-539, 48 h
[30] = tested on: BT-549; experiment: Growth inhibition of human BT549 cells assessed as cell growth at 10^-7 M incubated for 48 hrs by sulforhodamine B assay relative to control; settings: BT-549, 48 h, read-out: Activity
[31] = read-out: LC50 (the source's name)
[32] = read-out: pLC50 (the source's name) (converted)

## CCS/C(Nc1ccccc1)=C(\C#N)C(=O)N/N=C\c1ccc(Cl)cc1Cl
[1]
  growth at 0.1 µM: 82%
[2]; read-out: GI50
  GI50: 0.419 µM
[2]; [31]
  CC50: 9.26 µM
[2]; read-out: TGI
  TGI: 2.23 µM
[2]; read-out: pGI50 (converted)
  GI50: 0.417 µM
[2]; [32]
  CC50: 9.33 µM
[2]; read-out: pTGI (converted)
  TGI: 2.24 µM
[3]
  growth at 0.01 µM: 98%
[4]
  growth at 1 µM: 79%
[5]
  growth at 0.1 µM: 100%
[6]
  growth at 10 µM: 42%
[7]
  growth at 1 µM: 76%
[8]
  Activity: 0.89%
[9]
  growth at 10 µM: 49%
[10]
  growth at 100 µM: 7%
[11]
  growth at 0.1 µM: 91%
[12]
  growth at 0.1 µM: 89%
[13]
  growth at 0.01 µM: 108%
[14]
  growth at 0.1 µM: 90%
[15]
  growth at 100 µM: 11%
[16]
  growth at 10 µM: 33%
[17]; read-out: GI50
  GI50: 4.04 µM
[17]; [31]
  CC50: > 100 µM
[17]; read-out: TGI
  TGI: > 100 µM
[17]; read-out: pGI50 (converted)
  GI50: 4.07 µM
[17]; [32]
  CC50: > 100 µM
[17]; read-out: pTGI
  TGI: > 100 µM
[18]
  growth at 0.1 µM: 78%
[19]
  growth at 1 µM: 90%
[20]
  growth at 0.1 µM: 93%
[21]
  growth at 100 µM: 27%
[22]; read-out: GI50
  GI50: 0.855 µM
[22]; [31]
  CC50: > 100 µM
[22]; read-out: TGI
  TGI: > 100 µM
[22]; read-out: pGI50 (converted)
  GI50: 0.851 µM
[22]; [32]
  CC50: > 100 µM
[22]; read-out: pTGI
  TGI: > 100 µM
[23]
  growth at 100 µM: -7%
[24]; read-out: GI50
  GI50: 6.47 µM
[24]; read-out: LC50
  LC50: > 100 µM
[24]; read-out: TGI
  TGI: > 100 µM
[24]; read-out: pGI50 (converted)
  GI50: 6.46 µM
[24]; read-out: pLC50 (converted)
  LC50: > 100 µM
[24]; read-out: pTGI
  TGI: > 100 µM
[25]
  growth at 0.1 µM: 92%
[26]
  growth at 0.1 µM: 97%
[27]; read-out: GI50
  GI50: 2.8 µM
[27]; [31]
  CC50: > 100 µM
[27]; read-out: TGI
  TGI: > 100 µM
[27]; read-out: pGI50 (converted)
  GI50: 2.82 µM
[27]; [32]
  CC50: > 100 µM
[27]; read-out: pTGI
  TGI: > 100 µM
[28]
  growth at 0.01 µM: 100%
[29]; read-out: GI50
  GI50: 2.89 µM
[29]; [31]
  CC50: > 100 µM
[29]; read-out: TGI
  TGI: 20.6 µM
[29]; read-out: pGI50 (converted)
  GI50: 2.88 µM
[29]; [32]
  CC50: > 100 µM
[29]; read-out: pTGI (converted)
  TGI: 20.4 µM
[30]
  growth at 0.1 µM: 87%

## CCS/C(Nc1ccccc1)=C(\C#N)C(=O)Nc1ccc(OC)cc1
[1]
  growth at 0.1 µM: 86%
[2]; read-out: GI50
  GI50: 0.37 µM
[2]; [31]
  CC50: > 100 µM
[2]; read-out: TGI
  TGI: 1.89 µM
[2]; read-out: pGI50 (converted)
  GI50: 0.372 µM
[2]; [32]
  CC50: > 100 µM
[2]; read-out: pTGI (converted)
  TGI: 1.91 µM
[3]
  growth at 0.01 µM: 100%
[4]
  growth at 1 µM: 85%
[5]
  growth at 0.1 µM: 92%
[6]
  growth at 10 µM: 38%
[7]
  growth at 1 µM: 74%
[8]
  Activity: 1.63%
[9]
  growth at 10 µM: 61%
[10]
  growth at 100 µM: 16%
[11]
  growth at 0.1 µM: 89%
[12]
  growth at 0.1 µM: 93%
[13]
  growth at 0.01 µM: 105%
[14]
  growth at 0.1 µM: 90%
[15]
  growth at 100 µM: 10%
[16]
  growth at 10 µM: 41%
[17]; read-out: GI50
  GI50: 2.8 µM
[17]; [31]
  CC50: > 100 µM
[17]; read-out: TGI
  TGI: > 100 µM
[17]; read-out: pGI50 (converted)
  GI50: 2.82 µM
[17]; [32]
  CC50: > 100 µM
[17]; read-out: pTGI
  TGI: > 100 µM
[18]
  growth at 0.1 µM: 90%
[19]
  growth at 1 µM: 85%
[20]
  growth at 0.1 µM: 93%
[21]
  growth at 100 µM: 11%
[22]; read-out: GI50
  GI50: 0.436 µM
[22]; [31]
  CC50: > 100 µM
[22]; read-out: TGI
  TGI: > 100 µM
[22]; read-out: pGI50 (converted)
  GI50: 0.437 µM
[22]; [32]
  CC50: > 100 µM
[22]; read-out: pTGI
  TGI: > 100 µM
[23]
  growth at 100 µM: -24%
[24]; read-out: GI50
  GI50: 4.9 µM
[24]; read-out: LC50
  LC50: > 100 µM
[24]; read-out: TGI
  TGI: > 100 µM
[24]; read-out: pGI50 (converted)
  GI50: 4.9 µM
[24]; read-out: pLC50 (converted)
  LC50: > 100 µM
[24]; read-out: pTGI
  TGI: > 100 µM
[25]
  growth at 0.1 µM: 96%
[26]
  growth at 0.1 µM: 97%
[27]; read-out: GI50
  GI50: 2.8 µM
[27]; [31]
  CC50: > 100 µM
[27]; read-out: TGI
  TGI: > 100 µM
[27]; read-out: pGI50 (converted)
  GI50: 2.82 µM
[27]; [32]
  CC50: > 100 µM
[27]; read-out: pTGI
  TGI: > 100 µM
[28]
  growth at 0.01 µM: 105%
[29]; read-out: GI50
  GI50: 1.96 µM
[29]; [31]
  CC50: 52.9 µM
[29]; read-out: TGI
  TGI: 4.81 µM
[29]; read-out: pGI50 (converted)
  GI50: 1.95 µM
[29]; [32]
  CC50: 52.5 µM
[29]; read-out: pTGI (converted)
  TGI: 4.79 µM
[30]
  growth at 0.1 µM: 89%
